Tested on: Pyrenophora teres
Experiment: Test Example 8: barley Pyrenophora teres, foliar application before inoculation, 50 ppm
Assay type: in vivo
Conditions: barley (Nishinohoshi), 50 ppm foliar application, inoculated two days after, 3 days + 7 days

## CCN(C)/C=N/c1cc(C)c(OCC(F)(F)C(F)(F)C(F)(F)C(F)(F)C(F)(F)F)cc1C [present compound 7]
  lesion area on the treated plant relative to the area of lesions on an untreated plant: ≤ 30%

Source: patent publication US20130296436A1, “AMIDINE COMPOUNDS AND USE THEREOF FOR PLANT DISEASE CONTROL” (SUMITOMO CHEMICAL COMPANY, LIMITED, priority 2010, published 2013)
